“And” between values parts separate entries of the source, which are not always exact repeats. Identical values can stand only once.
Legend:
Leishmania donovani LV82 = assay: Visceral leishmaniasis-infected murine model (liver LDU, BALB/c mice); format: in vivo
Method: (§1) To determine the anti-leishmanial activity of a representative oral AmpB formulation, the following studies were completed. BALB/c mice were intravenously infected with 5×10^7 Leishmania donovani LV82 promastigotes (obtained by culturing amastigotes taken directly from the spleen of an infected hamster) seven days prior to treatment. Following the seven days, mice were either administered five daily doses of miltefosine at 3 mg/kg po, or Formulation A at 2.5, 5, and 10 mg/kg po bid for five consecutive days or 20 mg/kg po qd for five consecutive days. Appropriate vehicle controls were also assessed. Animals were sacrificed 14 days post infection and Leishman-Donovan units (LDU) were assessed in livers of mice post mortem via microscopic enumeration of Giemsa-stained liver smears

[1] = Body and organ weights in the murine VL model; format: in vivo, BALB/c mice
Method: as §1

Leishmania = conditions: visceral leishmaniasis, IV administration; cited from earlier work
[2] = crystalline; cited from earlier work
[3] = oral; cited from earlier work
[4] = 3 mg/kg p.o. qd, individual mice

| SMILES | LDU mean ± SD (Leishmania donovani LV82; 3 mg/kg p.o. qd, group mean (n=4)) | LDU (Leishmania donovani LV82; [4]) | # of amastigotes per 200 nuclei (Leishmania donovani LV82; 3 mg/kg p.o. qd, liver smears, individual mice) | % Reduction compared to Vehicle control (Average) (Leishmania donovani LV82; 3 mg/kg, p.o. qd) | % Reduction compared to water control (Average) (Leishmania donovani LV82; 3 mg/kg, p.o. qd) | inhibition of liver parasites (Leishmania donovani LV82; five daily doses at 3 mg/kg po) | Body Weight [1, 4] | Mean Body Weight Post-treatment ([1]; 3 mg/kg, p.o. qd) | Mean Body Weight Pre-treatment ([1]; 3 mg/kg, p.o. qd) | cure rate (Leishmania) | solubility in water [2] | bioavailability [3] |
| --- | --- | --- | --- | --- | --- | --- | --- | --- | --- | --- | --- | --- |
| CCCCCCCCCCCCCCCCOP(=O)([O-])OCC[N+](C)(C)C [Miltefosine, miltefosine] | 1537.604 | 1581.58 and 1431.131 and 1736.921 and 1400.783 | 286 and 283 and 301 and 262 | 51.7% | 49.3% | 47.5±7.0% | 19.8 g (2×) and 18.8 g and 18.5 g | 19.2 g | 19.3 g | – | – | – |
| C[C@@H]1[C@H](O)[C@@H](C)/C=C/C=C/C=C/C=C/C=C/C=C/C=C/[C@H](O[C@@H]2O[C@H](C)[C@@H](O)[C@H](N)[C@@H]2O)C[C@@H]2O[C@](O)(C[C@@H](O)C[C@@H](O)[C@H](O)CC[C@@H](O)C[C@@H](O)CC(=O)O[C@H]1C)C[C@H](O)[C@H]2C(=O)O (relative stereo) [amphotericin B, [1R-(1R*,3S*,5R*,6R*,9R*,11R*,15S*,16R*,17R*,18S*,19E,21E,23E,25E, 27E,29E,31E,33R*,35S*,36R*,37S,)]-33-[(3-amino-3,6-dideoxy-β-D-mannopyranosyl)oxy]1,3,5,6,9,11,17,37-octahydroxy-15,16,18-trimethyl-13-oxo-14,39-dioxabicyclo-[33.3.1]nonatriaconta-19,21,23,25,27,29,31-heptaene-36-carboxylic acid] | – | – | – | – | – | – | – | – | – | 97% | insoluble | negligible |

From patent US8673866B2, “Stabilized formulation for oral administration of therapeutic agents and related methods” (The University of British Columbia, priority 2009, dated 2014)
